Source: patent US20070208087A1, “Compounds, compositions and methods for the treatment of inflammatory diseases” (priority 2001, published 2007)
Where “and” joins values, the source holds several entries; their conditions need not be identical. Equal entries are not always repeated. Where two headings read alike, the source gives them in different places.

Experiments:
Format in all cases: cell-based
microglia = assay: Ranking of NO release inhibition (Example 12); settings: Microglia, ranking table
Excerpt: The bis- and tris-dihydroxyaryl compounds were ranked in order of effectiveness for the inhibition of NO release as set out in Table 8.

[1] = tested on: EOC 13.31 microglial cells; assay: NO release inhibition screen in LPS/IFNγ stimulated microglia, Griess reaction at 48 hours (Example 7); settings: for μM NO release Avg / % inhibition / inhibition at 50 µM: 50 uM + 10 μg/ml LPS/10 ng/ml IFNγ, 48 hours; for % inhibition: 50 µM; for inhibition at 50 µM: Microglia, 48 h
Experimental: In this experiment, additional bis- and tris-dihydroxyaryl compounds were screened for their ability to inhibit nitric oxide release from microglial cells. Microglial cells stimulated with LPS/IFNγ release nitric oxide. […] This is a continuation of screening experiments. EOC 13.31 microglial cells were plated into 96 well plates. At 24 hours and at confluency, cells were treated with 10 μg/ml LPS/10 ng/ml IFNγ+50 uM bis- and tris-dihydroxyaryl compounds.

[2] = tested on: TNF-α release from microglia; assay: TNF-α release from LPS/IFNγ stimulated microglia, TNF-α ELISA (Example 11); settings: 50 uM compound, TNF-α release, 10 ug LPS and 10 ng IFNγ, 24 hours; for % inhibition: individual replicates, 50 µM; for inhibition at 50 µM: Microglia, 24 h, read-out: Avg % Inhibition
Experimental: Also, bis- and tris-dihydroxyaryl compound's ability to inhibit NO release strongly supports their interference with the inflammatory cascade and utlimately inhibition of inflammation. Microglia cells were plated at 1×10^5 cells/ml into 96 well plates. At day three, they were treated with 50 μM bis- and tris-dihydroxyaryl compound for 1 hour and then exposed to 10 μg/ml LPS+10 ng/ml IFNγ for 24 hours. 10 μl of media was removed and stored at −80° until TNF-α ELISA assays were performed. Samples were diluted 1:50 before running the TNF-α ELISA (kit commercially available from Sigma).

[3] = tested on: EOC 13.31 microglia cells; assay: Inhibition of NO release from microglia following 24 hours pretreatment (Example 10); settings: for inhibition at 50 µM: Microglia
Experimental: This experiment was designed to determine if pretreatment for 24 hours with bis- and tris-dihydroxyaryl compounds changes NO inhibition previously observed with concurrent exposure of bis- and tris-dihydroxyaryl compounds. […] This study seeks to determine if pretreatment with bis- and tris-dihydroxyaryl compounds increases NO release inhibition. EOC 13.31 microglia cells were plated at 1×10^6 cells/ml in 96 well plates. After 48 hours, confluent cells were exposed to 50 μM compound (stock 10 mM in DMSO) prepared in fresh cell culture media. After 24 hours, 10 μg/ml LPS and 10 ng/ml IFNγ was added to wells directly without a media change. Cells were incubated for a further 48 hours and nitric oxide release was measured using the Griess Reaction.

Microglial cells = assay: Dose response inhibition of NO release from microglia, 0.5-500 μM (Example 9); settings: for μM NO release / μM NO release (No LPS average subtracted): 3 replicates
Experimental: This experiment was designed to determine the dose response inhibition of NO release from microglia by bis- and tris-dihydroxyaryl compounds when stimulated with LPS/IFNγ. Earlier experiments have demonostrated that some bis- and tris-dihydroxyaryl compounds are good inhibitors of NO release from microglia. This experiment is designed to determine a dose response for various effective bis- and tris-dihydroxyaryl compounds. Microglial cells were plated into 96 well plates at 1×10^5 cells/ml. At 48 hours, media was exchanged for media containing 10 ng/ml IFNγ and 10 μg/ml LPS and the following compounds 3, 4, 21, 26 and the positive control L-NAME. The doses tested were: 0.5 μM, 1.0 μM, 5.0 μM, 10 μM, 25 μM, 50 μM, 100 μM, 250 μM, and 500 μM. Nitric oxide release was measured after 48 hours using the Griess reaction.

[4] = 50 uM pretreatment 24 hours, then LPS/IFNγ 48 hours, single replicates
[5] = 50 uM pretreatment 24 hours, then LPS/IFNγ 48 hours, read-out: Avg % Inhibition
[6] = 50 uM pretreatment 24 hours, then LPS/IFNγ 48 hours, single replicates, read-out: % inhibition
[7] = 50 μM pretreatment, read-out: inhibition of NO release following pretreatment
[8] = dose 0.5 μM, LPS/IFNγ, 48 hours
[9] = dose 100 μM, LPS/IFNγ, 48 hours
[10] = dose 250 μM, LPS/IFNγ, 48 hours
[11] = dose 500 μM, LPS/IFNγ, 48 hours

## Oc1cc2ncc3cnc4cc(O)c(O)cc4c3c2cc1O [Compound 85, dibenzo[c,f][2,7]napthyridine-2,3,10,11-tetraol]
microglia
  inhibition at 50 µM: 16%
[1]
  μM NO release Avg: 23.445 µM
[1]; single replicates
  % inhibition: 24.54% and 12.660% and 9.33%
[1]; read-out: Avg. % Inhibition
  inhibition at 50 µM: 15.5%
[2]
  % inhibition: −14.41% and −19.01% and −16.88%
  inhibition at 50 µM: -16.8%
[3]; [4]
  % inhibition: 97.27% and 94.23%
[3]; [5]
  inhibition at 50 µM: 94.9%
[3]; [6]
  inhibition at 50 µM: 93.3%
[3]; [7]
  inhibition at 50 µM: > 75%

## O=C(CCc1ccc(O)c(O)c1)NCc1ccc(O)c(O)c1 [Compound 58, 3-(3,4-dihydroxyphenyl)propionic acid 3,4-dihydroxybenzylamide]
microglia
  inhibition at 50 µM: 4%
[1]
  μM NO release Avg: 26.605 µM
[1]; single replicates
  % inhibition: 9.89% and 2.05% and 0.37%
[1]; read-out: Avg. % Inhibition
  inhibition at 50 µM: 4.1%
[2]
  % inhibition: −13.26% and −11.95%
  inhibition at 50 µM: -12.6%
[3]; [4]
  % inhibition: 77.86% and 69.95%
[3]; [5]
  inhibition at 50 µM: 72.5%
[3]; [6]
  inhibition at 50 µM: 69.6%

## O=C(CCc1ccc(O)c(O)c1)Nc1ccc(O)c(O)c1 [Compound 57, 3-(3,4-dihydroxyphenyl)propionic acid 3,4-dihydroxyanilide]
microglia
  inhibition at 50 µM: 14%
[1]
  μM NO release Avg: 23.756 µM
[1]; single replicates
  % inhibition: 16.40% and 20.74% and 5.97%
[1]; read-out: Avg. % Inhibition
  inhibition at 50 µM: 14.4%
[2]
  % inhibition: −6.36% and −3.40% and −1.92%
  inhibition at 50 µM: -3.89%
[3]; [4]
  μM NO release: 0.000 µM
[3]; [5]
  inhibition at 50 µM: 100%
[3]; [6]
  inhibition at 50 µM: 100%
[3]; [7]
  inhibition at 50 µM: > 75%

## O=C(Nc1ccc(O)c(O)c1)C(=O)Nc1ccc(O)c(O)c1 [Compound 63, oxalic acid bis(3,4-dihydroxyanilide)]
microglia
  inhibition at 50 µM: 14%
[1]
  μM NO release Avg: 23.193 µM
[1]; single replicates
  % inhibition: 15.27%
[1]; read-out: Avg. % Inhibition
  inhibition at 50 µM: 14.2%
[1]; single replicates, read-out: % inhibition
  inhibition at 50 µM: 11.9%
[2]
  % inhibition: −11.29% and −7.18% and −9.97%
  inhibition at 50 µM: -9.48%
[3]; [4]
  % inhibition: 81.97%
[3]; [5]
  inhibition at 50 µM: 82.1%
[3]; [6]
  inhibition at 50 µM: 82.3%
[3]; [7]
  inhibition at 50 µM: > 75%

## O=C(CCC(=O)NCc1ccc(O)c(O)c1)NCc1ccc(O)c(O)c1 [Compound 67, succinic acid bis(3,4-dihydroxybenzylamide)]
microglia
  inhibition at 50 µM: 61%
Microglial cells; Microglia, 48 h, dose 0.5 μM, NO release, LPS/IFNγ, 48 hours, read-out: Avg % Inhibition
  inhibition at 0.5 µM: -2.75%
Microglial cells; Microglia, 48 h, dose 1 μM, NO release, LPS/IFNγ, 48 hours, read-out: Avg % Inhibition
  inhibition at 1 µM: 1.5%
Microglial cells; Microglia, 48 h, dose 5 μM, NO release, LPS/IFNγ
  inhibition at 5 µM: -0.75%
Microglial cells; Microglia, 48 h, dose 10 μM, NO release, LPS/IFNγ
  inhibition at 10 µM: -12.7%
Microglial cells; Microglia, 48 h, dose 25 μM, NO release, LPS/IFNγ
  inhibition at 25 µM: -5.5%
Microglial cells; Microglia, 48 h, dose 50 μM, NO release, LPS/IFNγ
  inhibition at 50 µM: -9.24%
Microglial cells; Microglia, 48 h, dose 100 μM, NO release, LPS/IFNγ, 48 hours, read-out: Avg % Inhibition
  inhibition at 100 µM: 16%
Microglial cells; Microglia, 48 h, dose 250 μM, NO release, LPS/IFNγ, 48 hours, read-out: Avg % Inhibition
  inhibition at 250 µM: 44.4%
Microglial cells; Microglia, 48 h, dose 250 μM, individual replicates, NO release, LPS/IFNγ, 48 hours, read-out: % inhibition
  inhibition at 250 µM: 45.3%
Microglial cells; Microglia, 48 h, dose 500 μM, NO release, LPS/IFNγ, 48 hours, read-out: Avg % Inhibition
  inhibition at 500 µM: 76.9%
Microglial cells; Microglia, 48 h, dose 500 μM, individual replicates, NO release, LPS/IFNγ, 48 hours, read-out: % inhibition
  inhibition at 500 µM: 75.5%
Microglial cells; Microglia, 48 h, highest concentration tested (500 μM), 48 hours, read-out: inhibited NO release by
  inhibition at 500 µM: 76%
Microglial cells; [8]
  μM NO release: 21.528 µM and 20.278 µM and 20.417 µM
  μM NO release (No LPS average subtracted): 19.83 µM and 18.58 µM and 18.72 µM
Microglial cells; dose 0.5 μM, individual replicates, NO release, LPS/IFNγ, 48 hours
  % inhibition: −7.00% and −0.25% and −1.00%
Microglial cells; dose 1 μM, LPS/IFNγ, 48 hours
  μM NO release: 21.528 µM and 19.306 µM and 19.028 µM
  μM NO release (No LPS average subtracted): 19.83 µM and 17.61 µM and 17.33 µM
Microglial cells; dose 1 μM, individual replicates, NO release, LPS/IFNγ, 48 hours
  % inhibition: −7.00% and 5.00% and 6.50%
Microglial cells; dose 5 μM, LPS/IFNγ, 48 hours
  μM NO release: 21.389 µM and 19.583 µM and 20.139 µM
  μM NO release (No LPS average subtracted): 19.69 µM and 17.88 µM and 18.44 µM
Microglial cells; dose 5 μM, individual replicates, NO release, LPS/IFNγ, 48 hours
  % inhibition: −6.25% and 3.50% and 0.50%
Microglial cells; dose 10 μM, LPS/IFNγ, 48 hours
  μM NO release: 22.917 µM and 22.083 µM and 22.778 µM
  μM NO release (No LPS average subtracted): 21.22 µM and 20.38 µM and 21.08 µM
Microglial cells; dose 10 μM, individual replicates, NO release, LPS/IFNγ, 48 hours
  % inhibition: −14.49% and −9.99% and −13.74%
Microglial cells; dose 25 μM, LPS/IFNγ, 48 hours
  μM NO release: 21.944 µM and 20.556 µM and 21.250 µM
  μM NO release (No LPS average subtracted): 20.24 µM and 18.86 µM and 19.55 µM
Microglial cells; dose 25 μM, individual replicates, NO release, LPS/IFNγ, 48 hours
  % inhibition: −1.75%
Microglial cells; dose 50 μM, LPS/IFNγ, 48 hours
  μM NO release: 22.639 µM and 21.111 µM and 22.083 µM
  μM NO release (No LPS average subtracted): 20.94 µM and 19.41 µM and 20.38 µM
Microglial cells; dose 50 μM, individual replicates, NO release, LPS/IFNγ, 48 hours
  % inhibition: −12.99% and −4.75% and −9.99%
Microglial cells; [9]
  μM NO release: 17.917 µM and 14.583 µM and 19.306 µM
  μM NO release (No LPS average subtracted): 16.22 µM and 12.88 µM and 17.61 µM
Microglial cells; dose 100 μM, individual replicates, NO release, LPS/IFNγ, 48 hours
  % inhibition: 12.49% and 30.48% and 5.00%
Microglial cells; [10]
  μM NO release: 11.835 μM (2×) and 12.367 μM
  μM NO release (No LPS average subtracted): 10.14 μM (2×) and 10.67 μM
Microglial cells; dose 250 μM, individual replicates, NO release, LPS/IFNγ, 48 hours
  % inhibition: 42.44%
Microglial cells; [11]
  μM NO release: 6.250 µM and 5.707 µM and 5.978 µM
  μM NO release (No LPS average subtracted): 4.55 µM and 4.01 µM and 4.28 µM
Microglial cells; dose 500 μM, individual replicates, NO release, LPS/IFNγ, 48 hours
  % inhibition: 78.38%
[1]
  μM NO release Avg: 10.579 µM
[1]; single replicates
  % inhibition: 44.82% and 72.72% and 65.01%
[1]; 50 uM, LPS/IFNγ stimulated microglia
  inhibition of NO release, in words: effective inhibitors of NO release
[1]; read-out: Avg. % Inhibition
  inhibition at 50 µM: 60.9%
[2]
  % inhibition: −27.48% and −14.06% and −17.41%
  inhibition at 50 µM: -19.6%
[3]; [4]
  % inhibition: 58.88% and 67.74%
[3]; [5]
  inhibition at 50 µM: 65.6%
[3]; [6]
  inhibition at 50 µM: 70.3%

## Oc1ccc(CN(Cc2ccc(O)c(O)c2)Cc2ccc(O)c(O)c2)cc1O [Compound 75, tris(3,4-dihydroxybenzyl)amine]
microglia
  inhibition at 50 µM: 16%
[1]
  μM NO release Avg: 23.343 µM
[1]; single replicates
  % inhibition: 24.54% and 12.06% and 10.97%
[1]; read-out: Avg. % Inhibition
  inhibition at 50 µM: 15.9%
[2]
  % inhibition: 2.52% and −2.74% and 5.81%
  inhibition at 50 µM: 1.86%
[3]; [4]
  % inhibition: 60.46% and 56.98%
[3]; [5]
  inhibition at 50 µM: 59.6%
[3]; [6]
  inhibition at 50 µM: 61.4%
